Molecules are shown by their SMILES.

The assay has as its target T1, human CTPS1 (Homo sapiens, UniProt P17812).
T1 construct: purchased Proteros biostructures GmbH
T1 sequence (P17812 1-591): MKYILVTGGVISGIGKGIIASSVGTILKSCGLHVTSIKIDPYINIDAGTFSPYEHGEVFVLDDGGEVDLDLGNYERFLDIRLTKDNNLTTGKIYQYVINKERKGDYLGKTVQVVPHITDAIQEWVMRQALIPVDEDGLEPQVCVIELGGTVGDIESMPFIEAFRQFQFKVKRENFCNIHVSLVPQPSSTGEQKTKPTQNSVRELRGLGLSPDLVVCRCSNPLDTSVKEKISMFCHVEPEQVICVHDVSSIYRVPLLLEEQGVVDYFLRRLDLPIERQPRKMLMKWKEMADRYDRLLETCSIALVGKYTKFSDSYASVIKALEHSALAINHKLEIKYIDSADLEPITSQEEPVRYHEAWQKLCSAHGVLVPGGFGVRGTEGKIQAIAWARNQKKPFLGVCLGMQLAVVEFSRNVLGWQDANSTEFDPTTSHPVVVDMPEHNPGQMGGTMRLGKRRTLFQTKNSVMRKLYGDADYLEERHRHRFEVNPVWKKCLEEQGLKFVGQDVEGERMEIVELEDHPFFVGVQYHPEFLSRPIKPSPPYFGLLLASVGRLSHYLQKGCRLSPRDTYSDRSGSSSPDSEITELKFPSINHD
Kind of assay: Human CTPS1 enzyme inhibition, ADP-Glo Max assay. The class given is biochemical. Particulars: human full length CTPS1, read-out: CTPS1 (Human CTPS1 Enzyme Inhibition data grouped by potency range, IC50). How it is done: Biological Example 1—Human CTPS1 Enzyme Inhibition
The enzyme inhibitory activities of compounds invented against the target of interest were determined using the ADP-Glo™ Max assay (Promega, UK). Assays for human CTPS1 were performed in 1× assay buffer containing 50 mM Tris, 10 mM MgCl2, 0.01% Tween-20, pH to 8.0 accordingly. Finally, immediately before use, L-cysteine was added to the 1× assay buffer to a final concentration of 2 mM. All reagents are from Sigma-Aldrich unless specified otherwise. Human full length active C-terminal FLAG-Hiss-tag CTPS1 (UniProtKB-P17812, CTPS[1-591]-[…]) was obtained from Proteros biostructures GmbH.
3× human CTPS1 protein was prepared in 1× assay buffer to the final working protein concentration required for the reaction. A 2 uL volume per well of 3× human CTPS1 protein was mixed with 2 uL per well of 3× test compound (compound prepared in 1× assay buffer to an appropriate final 3× compound concentration respective to the concentration response curve designed for the compounds under test) for 10 minutes at 25° C. The enzymatic reaction was then initiated by addition of a 2 uL per well volume of a pre-mixed substrate mix (UltraPure ATP from ADP-Glo™ Max kit (0.31 mM), GTP (0.034 mM), UTP (0.48 mM) and L-glutamine (0.186 mM)) and the mixture was incubated for an appropriate amount of time within the determined linear phase of the reaction at 25° C. under sealed plate conditions with constant agitation at 500 revolutions per minute (rpm). ADP-GIo™ Max reagent was added for 60 minutes (6 uL per well) and subsequently ADP-Glo™ Max development reagent was added for 60 minutes (12 uL per well) prior to signal detection in a microplate reader (EnVision® Multilabel Reader, Perkin Elmer). Following each reagent addition over the course of the assay, assay plates were pulse centrifuged for 30 seconds at 500 rpm.
In all cases, the enzyme converts ATP to ADP and the ADP-Glo™ Max reagent subsequently depletes any remaining endogenous ATP in the reaction system. The ADP-Glo™ Max detection reagent converts the ADP that has been enzymatically produced back into ATP and using ATP as a substrate together with luciferin for the enzyme luciferase, light is generated which produces a detectable luminescence. […] The percentage inhibition produced by each concentration of compound was calculated using the equation shown below: […]
Percentage inhibition was then plotted against compound concentration, and the 50% inhibitory concentration (IC50) was determined from the resultant concentration-response curve.
Consider `CCc1cncc(-c2ccc(C(=O)NC(C)(C)c3csc(NS(=O)(=O)C4CC4)n3)c(F)c2)n1` [Example R41, N-(2-(2-(cyclopropanesuIfonamido)thiazol-4-yl)propan-2-yl)-4-(6-ethylpyrazin-2-yl)-2-fluorobenzamide], for which the IC50 lay within 0.1 to 1 µM.

As to `CCOc1cncc(-c2ccc(C(=O)NC(C)(C)c3csc(NS(=O)(=O)C4CC4)n3)c(OC)c2)n1` [Example R7, N-(2-(2-(cyclopropanesulfonamido)thiazol-4-yl)propan-2-yl)-4-(6-ethoxypyrazin-2-yl)-2-methoxybenzamide], the IC50 lay within 0.1 to 1 µM. Next, `COc1cc(-c2cncc(C(F)(F)F)c2)ccc1C(=O)NC(C)(C)c1csc(NS(=O)(=O)C2CC2)n1` [Example R32]: 0.1 to 1 µM; `CCOc1cncc(-c2ccc(C(=O)NCc3csc(NS(=O)(=O)C4CC4)n3)c(F)c2)n1` [Example R11, N-((2-(cyclopropanesuIfonamido)thiazol-4-yl)methyl)-4-(6-ethoxypyrazin-2-yl)-2-fluorobenzamide]: less than 0.1 µM.

Consider `CCOc1cncc(-c2ccc(C(=O)NC(C)(C)c3csc(NS(=O)(=O)C4CC4)n3)cc2)n1` [Example R55, N-(2-(2-(cyclopropanesulfonamido)thiazol-4-yl)propan-2-yl)-4-(6-ethoxypyrazin-2-yl)benzamide], for which the IC50 was less than 0.1 µM. For the compound `CCOc1cncc(-c2ccc(C(=O)NC(C)(C)c3nc(NS(=O)(=O)C4CC4)sc3C)nc2)n1` [Example R72, N-(2-(2-(cyclopropanesuIfonamido)-5-methylthiazol-4-yl)propan-2-yl)-5-(6-ethoxypyrazin-2-yl)picolinamide], the concentration for half-maximal inhibition (IC50) was 1 to 10 µM. Then `CC(C)(NC(=O)c1ccc(-c2ccccn2)nc1)c1csc(NS(=O)(=O)C2CC2)n1` [Example R27, N-(2-(2-(cyclopropanesuIfonamido)thiazol-4-yl)propan-2-yl)-[2,2′-bipyridine]-5-carboxamide], with 10 to 21 µM; and `CCC(NC(=O)c1ccc(-c2cncc(C(F)(F)F)c2)cc1)c1csc(NS(=O)(=O)C2CC2)n1` (single isomer, unassigned) [Example R4, N-(1-(2-(cyclopropanesulfonamido)thiazol-4-yl)propyl)-4-(5-(trifluoromethyl)pyridin-3-yl)benzamide], with less than 0.1 µM. Next, `COc1cncc(-c2ccc(C(=O)NC(C)(C)c3csc(NS(=O)(=O)C4CC4)n3)cc2)c1` [Example R38, N-(2-(2-(cyclopropanesuIfonamido)thiazol-4-yl)propan-2-yl)-4-(5-methoxypyridin-3-yl)benzamide]: 0.1 to 1 µM; `COCCC(NC(=O)c1ccc(-c2cncc(OC(C)C)n2)cc1F)c1csc(NS(=O)(=O)C2CC2)n1` (stereo not shown) [Example R89, N-(1-(2-(cyclopropanesulfonamido)thiazol-4-yl)-3-methoxypropyl)-2-fluoro-4-(6-isopropoxypyrazin-2-yl)benzamide]: less than 0.1 µM. Next, `CC(C)(NC(=O)c1ccc(-c2cncc(C(F)(F)F)n2)cc1)c1nc(NS(=O)(=O)C2CC2)sc1Cl` [Example R79, N-(2-(5-chloro-2-(cyclopropanesulfonamido)thiazol-4-yl)propan-2-yl)-4-(6-(trifluoromethyl)pyrazin-2-yl)benzamide]: 0.1 to 1 µM; `CCOc1cncc(-c2ccc(C(=O)NC(C)(C)c3nc(NS(=O)(=O)C4CC4)sc3C)c(F)c2)n1` [Example R74, N-(2-(2-(cyclopropanesulfonamido)-5-methylthiazol-4-yl)propan-2-yl)-4-(6-ethoxypyrazin-2-yl)-2-fluorobenzamide]: 0.1 to 1 µM. `Cc1cc(-c2cncc(C(F)(F)F)n2)ccc1C(=O)NC(C)(C)c1nc(NS(=O)(=O)C2CC2)sc1C` [Example R76, N-(2-(2-(cyclopropanesuIfonamido)-5-methylthiazol-4-yl)propan-2-yl)-2-methyl-4-(6-(trifluoromethyl)pyrazin-2-yl)benzamide]: the IC50 was in the range of 0.1 to 1 µM. Next, `O=C(NCc1csc(NS(=O)(=O)C2CC2)n1)c1ccc(-c2ccccc2)cn1` [Example R8, N-((2-(cyclopropanesulfonamido)thiazol-4-yl)methyl)-5-phenylpicolinamide]: 1 to 10 µM. With `CCC(NC(=O)c1ccc(-c2cncc(OC(C)C)n2)cc1F)c1csc(NS(=O)(=O)C2CC2)n1` (racemic) [Example R64, N-(1-(2-(cyclopropanesulfonamido)thiazol-4-yl)propyl)-2-fluoro-4-(6-isopropoxypyrazin-2-yl)benzamide], the IC50 was in the range of 0.1 to 1 µM. With `CCOc1cncc(-c2ccc(C(=O)NC(CC)c3csc(NS(=O)(=O)C4CC4)n3)c(F)c2)n1` (single isomer, unassigned) [Example R70, N-(1-(2-(cyclopropanesulfonamido)thiazol-4-yl)propyl)-4-(6-ethoxypyrazin-2-yl)-2-fluorobenzamide], the IC50 is 0.1 to 1 µM. Then `CCC(CC)(NC(=O)c1ccc(-c2cccnc2)cc1)c1csc(NS(=O)(=O)C2CC2)n1` [Example R18, N-(3-(2-(cyclopropanesulfonamido)thiazol-4-yl)pentan-3-yl)-4-(pyridin-3-yl)benzamide], with 0.1 to 1 µM; and `O=C(NC1(c2csc(NS(=O)(=O)C3CC3)n2)CC1)c1ccc(-c2cccnc2)cc1` [Example R81, N-(1-(2-(cyclopropanesulfonamido)thiazol-4-yl)cyclopropyl)-4-(pyridin-3-yl)benzamide], with 0.1 to 1 µM.

As to `CCC(CC)(NC(=O)c1ccc(-c2cncc(C(F)(F)F)c2)cc1)c1csc(NS(=O)(=O)C2CC2)n1` [Example R15, N-(3-(2-(cyclopropanesulfonamido)thiazol-4-yl)pentan-3-yl)-4-(5-(trifluoromethyl)pyridin-3-yl)benzamide], the IC50 was less than 0.1 µM. Regarding `CCOc1cncc(-c2ccc(C(=O)NC(C)c3csc(NS(=O)(=O)C4CC4)n3)c(F)c2)n1` (stereo not shown) [Example R91, N-(1-(2-(cyclopropanesulfonamido)thiazol-4-yl)ethyl)-4-(6-ethoxypyrazin-2-yl)-2-fluorobenzamide], the IC50 was less than 0.1 µM. Next, `CCc1cncc(-c2ccc(C(=O)NC(CCOC)c3csc(NS(=O)(=O)C4CC4)n3)c(F)c2)n1` (stereo not shown) [Example R86, N-(1-(2-(cyclopropanesulfonamido)thiazol-4-yl)-3-methoxypropyl)-4-(6-ethylpyrazin-2-yl)-2-fluorobenzamide]: 0.1 to 1 µM; `CCC(NC(=O)c1ccc(-c2cncc(F)c2)cc1)c1csc(NS(=O)(=O)C2CC2)n1` (single isomer, unassigned) [Example R68, N-(1-(2-(cyclopropanesulfonamido)thiazol-4-yl)propyl)-4-(5-fluoropyridin-3-yl)benzamide]: 1 to 10 µM; `COc1cncc(-c2ccc(C(=O)NC(C)(C)c3csc(NS(=O)(=O)C4CC4)n3)cc2)n1` [Example R54, N-(2-(2-(cyclopropanesulfonamido)thiazol-4-yl)propan-2-yl)-4-(6-methoxypyrazin-2-yl)benzamide]: less than 0.1 µM. Consider `CCC(CC)(NC(=O)c1ccc(-c2cncc(F)c2)cc1)c1csc(NS(=O)(=O)C2CC2)n1` [Example R16, N-(3-(2-(cyclopropanesulfonamido)thiazol-4-yl)pentan-3-yl)-4-(5-fluoropyridin-3-yl)benzamide], for which the IC50 was 0.1 to 1 µM. Regarding `CC(=O)c1cncc(-c2ccc(C(=O)NC(C)(C)c3csc(NS(=O)(=O)C4CC4)n3)cc2)c1` [Example R34], the 50% inhibitory concentration (IC50) was 1 to 10 µM.

Source of the values: US11505547B2, “Compounds” (STEP PHARMA S.A.S., priority 2017, dated 2022).
